# Laboratory results: patent US20100227356A1, “METHODS FOR ASSESSING EFFECTS ON SKELETAL GROWTH” (priority 2008, published 2010)
# System: neonatal limb culture
# Assay: X-ray imaging of neonatal mouse hind limb organ culture (effect of bisphosphonates on bone density)
# Type: cell-based, Swiss albino mouse
# Details: 1 mM pamidronate in culture medium (well A) vs control (well B); neonatal limb in culture for 40 hours; FIG. 3
# Text: The method of the invention may be used to monitor the dynamic growth of an articulated skeletal […] by capturing a series of images overtime. In this example, an articulated lower portion (hind limb) of a limb of a neonatal, day-old Swiss albino mouse was removed and cultured in a well plate. The limb was scraped with a scalpel to abrade any skin and flesh sufficiently to allow an organ culture medium to reach the skeletal members. The scraped limb was superficially embedded in 1% agarose. The medium used for culture was 4 ml of minimum essential medium (Delbecco's Modified Eagle Medium), supplemented with 1 mM β glycerophosphate, ascorbic acid, 0.2% bovine serum albumin and antibiotics. The antibiotics contained 100 units/ml penicillin, and 100 μg/ml streptomycin. The skeletal members of the limbs continued to grow within the cultures and were imaged with X-rays (Time-Lapse-3 hrs; 11 to […] using a multi-modal system as previously described). Bone growth and mineral deposition could be measured, as could X-ray and column densities. Because the limb was articulated, the growth of individual skeletal members was influenced by neighboring members, just as in the case of growth in a living animal. The analytical X-ray imaging methodology according to the invention allows measurement of the growth of skeletal members of a neonatal mouse limb grown in vitro in organ culture. […]
smiles,measurement,value
"NCCC(O)(P(=O)(O)O)P(=O)(O)O [pamidronate, Pamidronate]",bone density and size versus control (X-ray images),differences in bone density and size are observable
